From patent US7345037B2, “Nitrosated and nitrosylated compounds and compositions and their use for treating respiratory disorders” (Nitromed, Inc., priority 1996, dated 2008) come the findings set out here.

Assay [1] has as its system airway responsiveness to aerosolized carbachol after exposure to ascaris suum. As to the kind of experiment: Airway responsiveness to aerosolized carbachol (PC150) before and after Ascaris suum challenge in allergic conscious sheep. It counts as in vivo. Particulars: 500 μg aerosolized, PC150 of carbachol 24 hours prior to and 24 post ascaris suum exposure, closer to unity is better. From the text: (§1) The measurement of biological activity in a pulmonary model of allergic asthma and lung inflammation was undertaken in adult conscious sheep. The methodology was essentially as described by W. M. Abraham et al. (Bull. Eur. Physiopathol. Respir., 22, 387 (1986)). Adult sheep with a natural cutaneous reaction to Ascaris Suum extract and who respond to inhalation challenge with Ascaris Suum with both an acute bronchoconstriction and a late bronchial obstruction were used in the study.
Airway responsiveness was measured by calculation of a PC150 value. The PC150 is the dose of aerosolized carbachol which produces a 150% increase in sR1 above baseline. The doses of carbachol were administered in an ascending dose-response fashion with each dose being administered for a 10 breath duration. The PC150 value was determined for each animal 24 hours prior to exposure to ascaris suum and again 24 post exposure. The difference in PC150 values represented a change in airway responsiveness. The closer the post challenge to prechallenge ratio to unity the better the effect of the particular compound.
(§2) Each test drug was aerosolized to an animal 30 minutes prior to challenge with ascaris suum.

Assay [2] concerns acute bronchoconstriction and late bronchial obstruction after inhalation challenge with Ascaris Suum. As to the kind of experiment: Ascaris suum-induced immediate and late bronchial response (mean lung resistance sR1) in allergic conscious sheep. It counts as in vivo. Particulars: for protection of the immediate response / protection of the peak late response: 500 μg aerosolized 30 minutes prior to ascaris suum challenge, referenced to historical controls, n=3.
Source text: as §1
Unsedated sheep were intubated and measurement of airway mechanics were computed and recorded on a digital computer utilizing inputs of transpulmonary pressure and tracheal airflow recordings. Each animal was exposed to an aerosol of ascaris suum, diluted to produce an immediate and significant increase in mean lung resistance (sR1) of approximately 600-700% above baseline. […] This second response is known as the late response. sR1 returned to baseline by 24 hours. Each animal was exposed to an aerosol of ascaris suum at a minimum of two week interval. […]
as §2

Turning to `CC1(C)O[C@@H]2C[C@H]3[C@@H]4C[C@H](F)C5=CC(=O)C=C[C@]5(C)[C@H]4[C@@H](O)C[C@]3(C)[C@]2(C(=O)CO)O1` [6α-Fluoro-11β, 21-dihydroxy-16α, 17α-((1-methylethylidene)bis(oxy))pregna-1,4-diene-3,20-dione, reference compound], the “post challenge/prechallenge ratio of PC150 values (airway hyperresponsiveness)” value in assay [1] was determined as 0.98±0.10. Also, in assay [2], the “protection of the immediate response” value came out at 16±21% and the “protection of the peak late response” value is given as 83±7%.
Turning to “6α-Fluoro-11β-hydroxy-16α,17-((1-methylethylidene)bis(oxy))pregna-1,4-diene-3,20-dione-21-(3-methyl-3-nitrosothio)-butanoate [Example 1]”, the “post challenge/prechallenge ratio of PC150 values (airway hyperresponsiveness)” value in assay [1] is given as 1.18±0.06. In assay [2], the “protection of the immediate response” value came out at 59±14% and the “protection of the peak late response” value is recorded as 89±2%. For the same compound, the “protection against lung function changes due to aerosol challenge of ascaris suum” value in assay [2] (overall comparison with the parent steroid) is “better protection”.
